In patent publication US20080267942A1, “BENZAZEPIN-2(1H)-ONE DERIVATIVES” (Pfizer Limited, priority 2006, published 2008):

Tests used:
[1] = molecular target: T1, bovine beta-2 adrenoceptor (Bos taurus, UniProt Q28044); assay: cAMP assay in CHO cells transfected with the bovine beta-2 adrenoceptor (DiscoveRx Hit Hunter cAMP II); format: cell-based; details: CHO cells transfected with bovine beta-2 adrenoceptor, 30 minutes incubation with compound
T1 construct: expressed in transfected cells; host or cells: CHO cells
Experimental: (§1) CHO cells transfected with the bovine or porcine beta-2 adrenceptors were maintained in culture in DMEM/HAMS F12+10% FBS+2 mM glutamine+500 μg/ml geneticin (for the porcine receptor the medium was supplement with 1.5 mM HEPES) at 37° C. with a 5% CO2 atmosphere.
(§2) Cells were plated into 96 well viewplates in medium and incubated overnight at 37° C. with a 5% CO2 atmosphere. The cells were pre-incubated with 0.5 mM IBMX in PBS for 30 minutes prior to incubation with increasing concentrations of experimental compound (5×10^−12 to 10^−5M) for 30 minutes at 37° C. with a 5% CO2 atmosphere. At the end of the incubation time the compound was removed and the cells assayed for cAMP using the DiscoveRx Hit Hunter cAMP II™ assay kit.
(§3) Duplicate samples were run for each experimental compound and the data generated was analysed using EC50 analysis software in Graphpad Prism.

[2] = molecular target: T2, porcine beta-2 adrenoceptor (Sus scrofa, UniProt Q28997); assay: cAMP assay in CHO cells transfected with the porcine beta-2 adrenoceptor (DiscoveRx Hit Hunter cAMP II); format: cell-based; details: CHO cells transfected with porcine beta-2 adrenoceptor, 30 minutes incubation with compound
T2 construct: expressed in transfected cells; host or cells: CHO cells
Experimental: as §1, §2, §3

T1 sequence (Q28044 whole entry): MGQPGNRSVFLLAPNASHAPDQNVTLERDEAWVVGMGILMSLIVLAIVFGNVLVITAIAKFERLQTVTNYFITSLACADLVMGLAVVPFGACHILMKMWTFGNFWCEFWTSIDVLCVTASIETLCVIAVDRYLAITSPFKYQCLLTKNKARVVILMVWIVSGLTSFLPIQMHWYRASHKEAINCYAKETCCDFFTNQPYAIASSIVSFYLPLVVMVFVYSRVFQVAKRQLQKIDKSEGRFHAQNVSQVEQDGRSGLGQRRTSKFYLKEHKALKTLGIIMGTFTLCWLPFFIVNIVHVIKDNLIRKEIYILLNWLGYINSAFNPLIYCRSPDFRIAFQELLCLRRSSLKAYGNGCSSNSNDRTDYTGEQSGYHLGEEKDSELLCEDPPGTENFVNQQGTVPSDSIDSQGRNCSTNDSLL
T2 sequence (Q28997 whole entry): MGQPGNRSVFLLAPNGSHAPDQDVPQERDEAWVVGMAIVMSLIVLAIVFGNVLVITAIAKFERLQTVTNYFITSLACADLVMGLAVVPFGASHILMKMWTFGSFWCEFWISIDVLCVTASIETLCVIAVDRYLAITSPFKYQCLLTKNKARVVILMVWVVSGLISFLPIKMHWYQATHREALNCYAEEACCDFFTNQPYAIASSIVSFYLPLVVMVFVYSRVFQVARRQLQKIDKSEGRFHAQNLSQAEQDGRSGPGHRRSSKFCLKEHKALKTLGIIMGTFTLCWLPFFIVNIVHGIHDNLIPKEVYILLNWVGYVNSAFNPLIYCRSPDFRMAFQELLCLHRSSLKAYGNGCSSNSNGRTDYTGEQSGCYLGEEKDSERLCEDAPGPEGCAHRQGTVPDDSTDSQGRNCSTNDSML

| Structure (SMILES) | EC50 [1] | EC50 [2] |
| --- | --- | --- |
| CC(CCc1c[nH]c2ccncc12)N[C@@H]1CCn2c(=O)[nH]c3cccc(c32)[C@H]1O (single isomer, unassigned) [Example 31b, 7-Hydroxy-6-{[1-methyl-3-(1H-pyrrolo[3,2-c]pyridin-3-yl)propyl]amino}-4,5,6,7-tetrahydroimidazo[4,5,1-jk][1]benzazepin-2(1H)-one] | 58 nM | 43 nM |
| CC(CCc1c[nH]c2cnccc12)N[C@@H]1CCn2c(=O)[nH]c3cccc(c32)[C@H]1O (single isomer, unassigned) [Example 32b, 7-Hydroxy-6-{[1-methyl-3-(1H-pyrrolo[2,3-c]pyridin-3-yl)propyl]amino}-4,5,6,7-tetrahydroimidazo[4,5,1-jk][1]benzazeiin-2(1H)-one] | 96 nM | 1090 nM |
| Cc1ncsc1CCC(C)N[C@@H]1CCn2c(=O)[nH]c3cccc(c32)[C@H]1O (single isomer, unassigned) [Example 34b, 7-Hydroxy-6-{[1-methyl-3-(4-methyl-1,3-thiazol-5-yl)propyl]amino}-4,5,6,7-tetrahydroimidazo[4,5,1-jk][1]benzazepin-2(1H)-one] | 1.4 nM | 2.1 nM |
| CC(CCc1ccc2[nH]ccc2c1)N[C@@H]1CCn2c(=O)[nH]c3cccc(c32)[C@H]1O (single isomer, unassigned) [Example 37] | 16 nM | 28 nM |
| CC(CCc1cccc2cc[nH]c12)N[C@@H]1CCn2c(=O)[nH]c3cccc(c32)[C@H]1O (single isomer, unassigned) [Example 38a, 7-Hydroxy-6-{[3-(1H-indol-7-yl)-1-methylpropyl]amino}-4,5,6,7-tetrahydroimidazo[4,5,1-jk][1]benzazepin-2(1H)-one] | 44 nM | 79 nM |
| CC(CCc1cccc2cc[nH]c12)N[C@@H]1CCn2c(=O)[nH]c3cccc(c32)[C@H]1O (single isomer, unassigned) [Example 38b, 7-Hydroxy-6-{[3-(1H-indol-7-yl)-1-methylpropyl]amino}-4,5,6,7-tetrahydroimidazo[4,5,1-jk][1]benzazepin-2(1H)-one] | 0.8 nM | 0.9 nM |
| CC(CCc1cccc2cc[nH]c12)N[C@@H]1CCn2c(=O)[nH]c3cccc(c32)[C@H]1O (single isomer, unassigned) [Example 38c, 7-Hydroxy-6-{[3-(1H-indol-7-yl)-1-methylpropyl]amino}-4,5,6,7-tetrahydroimidazo[4,5,1-jk][1]benzazepin-2(1H)-one] | 137 nM | 174 nM |
| C[C@H](CCc1c[nH]c2ccccc12)N[C@@H]1CCn2c(=O)[nH]c3cccc(c32)[C@H]1O [Example 4e, 7-Hydroxy-6-{[3-(1H-indol-3-yl)-1-methylpropyl]amino}-4,5,6,7-tetrahydroimidazo[4,5,1-jk][1]benzazepin-2(1H)-one] | 1.1 nM | 3.7 nM |
| C[C@H](CCc1c[nH]c2ccccc12)N[C@@H]1CCn2c(=O)[nH]c3cccc(c32)[C@H]1O [Example 4f, 7-Hydroxy-6-{[3-(1H-indol-3-yl)-1-methylpropyl]amino}-4,5,6,7-tetrahydroimidazo[4,5,1-jk][1]benzazepin-2(1H)-one] | 1.7 nM | 2.5 nM |
| CNc1nc(CC(C)NC2CCn3c(=O)[nH]c4cccc(c43)C2O)ns1 (stereo not drawn) [Example 10, 7-Hydroxy-6-({1-methyl-2-[5-(methylamino)-1,2,4-thiadiazol-3-yl]ethyl}amino)-4,5,6,7-tetrahydroimidazo[4,5,1-jk][1]benzazepin-2(1H)-one] | 497 nM | 399 nM |
| CC(Cc1ccco1)NC1CCn2c(=O)[nH]c3cccc(c32)C1O (stereo not drawn) [Example 11, 6-{[2-(2-Furyl)-1-methylethyl]amino}-7-hydroxy-4,5,6,7-tetrahydroimidazo[4,5,1-jk][1]benzazepin-2(1H)-one] | 108 nM | 64 nM |
| CC(CCc1nc2ccccc2[nH]1)NC1CCn2c(=O)[nH]c3cccc(c32)C1O (stereo not drawn) [Example 12, 6-{[3-(1H-Benzimidazol-2-yl)-1-methylpropyl]amino}-7-hydroxy-4,5,6,7-tetrahydroimidazo[4,5,1-jk][1]benzazepin-2(1H)-one] | 34 nM | 53 nM |
| CC(CCc1ccccn1)NC1CCn2c(=O)[nH]c3cccc(c32)C1O (stereo not drawn) [Example 13, 7-Hydroxy-6-[(1-methyl-3-pyridin-2-ylpropyl)amino]-4,5,6,7-tetrahydroimidazo[4,5,1-jk][1]benzazepin-2(1H)-one] | 356 nM | 184 nM |
| CC(CCc1cn(C)c2ccccc12)NC1CCn2c(=O)[nH]c3cccc(c32)C1O (stereo not drawn) [Example 14a, 7-Hydroxy-6-{[1-methyl-3-(1-methyl-1H-indol-3-yl)propyl]amino}-4,5,6,7-tetrahydroimidazo[4,5,1-jk][1]benzazepin-2(1H)-one] | 18 nM | 26 nM |
| CC(CCn1cccn1)NC1CCn2c(=O)[nH]c3cccc(c32)C1O (stereo not drawn) [Example 15, 7-Hydroxy-6-{[1-methyl-3-(1H-pyrazol-1-yl)propyl]amino}-4,5,6,7-tetrahydroimidazo[4,5,1-jk][1]benzazepin-2(1H)-one] | 161 nM | 98 nM |
| O=c1[nH]c2cccc3c2n1CCC(NCCCc1c[nH]c2ccccc12)C3O (stereo not drawn) [Example 19, 7-Hydroxy-6-{[3-(1H-indol-3-yl)propyl]amino}-4,5,6,7-tetrahydroimidazo[4,5,1-jk][1]benzazeopin-2(1H)-one] | 50 nM | 65 nM |
| CC(CCc1nccs1)NC1CCn2c(=O)[nH]c3cccc(c32)C1O (stereo not drawn) [Example 24a, 7-Hydroxy-6-{[1-methyl-3-(1,3-thiazol-2-yl)propyl]amino}-4,5,6,7-tetrahydroimidazo[4,5,1-jk][1]benzazepin-2(1H)-one] | 409 nM | 464 nM |

The next lines start with the values.

| EC50 [1] | EC50 [2] | Structure (SMILES) |
| --- | --- | --- |
| 1.3 nM | 1.8 nM | CC(CCc1cccnc1N)N[C@@H]1CCn2c(=O)[nH]c3cccc(c32)[C@H]1O (single isomer, unassigned) [Example 44] |
| 1.4 nM | 1.1 nM | CC(CCc1cncc(N)c1)N[C@@H]1CCn2c(=O)[nH]c3cccc(c32)[C@H]1O (single isomer, unassigned) [Example 45] |
| 3 nM | 2.8 nM | CC(CCc1ccc(N)nc1)N[C@@H]1CCn2c(=O)[nH]c3cccc(c32)[C@H]1O (single isomer, unassigned) [Example 46] |
| 0.6 nM | 0.9 nM | CC(CCc1cnsc1)N[C@@H]1CCn2c(=O)[nH]c3cccc(c32)[C@H]1O (single isomer, unassigned) [Example 47] |
| 3.4 nM | 3.1 nM | Cc1nn(C)c(C)c1CCC(C)N[C@@H]1CCn2c(=O)[nH]c3cccc(c32)[C@H]1O (single isomer, unassigned) [Example 48] |
| 4.7 nM | 6.4 nM | CC(CCc1cncs1)N[C@@H]1CCn2c(=O)[nH]c3cccc(c32)[C@H]1O (single isomer, unassigned) [Example 49] |
| 0.6 nM | 0.9 nM | CC(CCn1cnc2ccccc21)N[C@@H]1CCn2c(=O)[nH]c3cccc(c32)[C@H]1O (single isomer, unassigned) [Example 51] |
| 1.2 nM | 1.3 nM | CC(CCc1cc(Br)no1)N[C@@H]1CCn2c(=O)[nH]c3cccc(c32)[C@H]1O (single isomer, unassigned) [Example 52] |
| 2.7 nM | 3.1 nM | Cc1[nH]c2ccc(F)cc2c1CCC(C)N[C@@H]1CCn2c(=O)[nH]c3cccc(c32)[C@H]1O (single isomer, unassigned) [Example 54] |
| 4.4 nM | 9.9 nM | CC(CCc1c[nH]c2cccnc12)N[C@@H]1CCn2c(=O)[nH]c3cccc(c32)[C@H]1O (single isomer, unassigned) [Example 55] |
| 5.2 nM | 2.7 nM | CC(CCc1cnn(C)c1)N[C@@H]1CCn2c(=O)[nH]c3cccc(c32)[C@H]1O (single isomer, unassigned) [Example 56] |
| 5.7 nM | 13 nM | CC(CCc1c[nH]c2cnccc12)N[C@@H]1CCn2c(=O)[nH]c3cccc(c32)[C@H]1O (single isomer, unassigned) [Example 57] |
| 8.3 nM | 33 nM | CC(CCc1n[nH]c2ccccc12)N[C@@H]1CCn2c(=O)[nH]c3cccc(c32)[C@H]1O (single isomer, unassigned) [Example 58] |
| 20 nM | 17 nM | Cc1nn(C)cc1CCC(C)N[C@@H]1CCn2c(=O)[nH]c3cccc(c32)[C@H]1O (single isomer, unassigned) [Example 59] |
| 23 nM | 13 nM | CC(CCc1c[nH]c2cc(C#N)ccc12)N[C@@H]1CCn2c(=O)[nH]c3cccc(c32)[C@H]1O (single isomer, unassigned) [Example 60] |
| 28 nM | 18 nM | CC(CCn1cncn1)N[C@@H]1CCn2c(=O)[nH]c3cccc(c32)[C@H]1O (single isomer, unassigned) [Example 61] |
| 35 nM | 28 nM | CC(CCc1c[nH]c2ccncc12)N[C@@H]1CCn2c(=O)[nH]c3cccc(c32)[C@H]1O (single isomer, unassigned) [Example 62] |
| 81 nM | 25 nM | Cc1cc(CCC(C)N[C@@H]2CCn3c(=O)[nH]c4cccc(c43)[C@H]2O)ccn1 (single isomer, unassigned) [Example 63] |
| 169 nM | 188 nM | Cc1cc(C)n(CCC(C)N[C@@H]2CCn3c(=O)[nH]c4cccc(c43)[C@H]2O)n1 (single isomer, unassigned) [Example 64] |
